Test system: acid secretion in female rats
Test: Inhibiting effect on acid secretion in female rats
Assay type: in vivo, rat (Sprague-Dawley
Settings: rats administered 1 μmol/kg
Protocol: Inhibiting Effect on Acid Secretion in Female Rats
Female rats of the Sprague-Dawley strain were used. They were equipped with cannulated fistulae in the stomach (lumen) and the upper part of the duodenum, for collection of gastric secretions and administration of test substances, respectively. A recovery period of 14 days after surgery was allowed before testing commenced.
Before secretory tests, the animals were deprived of food but not water for 20 h. The stomach was repeatedly washed through the gastric cannula with tap water (+37° C.), and 6 ml Ringer-Glucose given subcutaneously. […] Gastric juice samples were titrated to pH 7.0 with NaOH, 0.1M, and acid output calculated as the product of titrant volume and concentration.
Further calculations were based on group mean responses from 4-6 rats. In the case of administration during stimulation, the acid output during the periods after administration of test substance or vehicle were expressed as fractional responses, setting the acid output in the 30-min period preceding administration to 1.0. Percentage inhibition was calculated from the fractional responses elicited by test compound and vehicle. In the case of administration before stimulation, percentage inhibition was calculated directly from acid output recorded after test compound and vehicle. […]

Structure (SMILES)	maximal inhibition of acid secretion [%]
Cc1cccc(C)c1CNc1cc(C(=O)NCCOC(=O)CCCC(=O)O)cn2c(C)c(C)nc12 [Example 1, 5-{2-[({8-[(2,6-dimethylbenzyl)amino]-2,3-dimethylimidazo[1,2-a]pyridin-6-yl}carbonyl)amino]ethoxy}-5-oxopentanoic acid]	100
Cc1cccc(C)c1CNc1cc(C(=O)NCCOC(=O)CCC(=O)O)cn2c(C)c(C)nc12 [Example 2, 4-{2-[({8-[(2,6-dimethylbenzyl)amino]-2,3-dimethylimidazo[1,2-a]pyridin-6-yl}carbonyl)amino]ethoxy}-4-oxobutanoic acid]	70

Source: US8993589B2, “Imidazopyridine derivatives which inhibit the secretion of gastric acid” (priority 2008, dated 2015)
